Measured values taken from ChEMBL document CHEMBL4665836, “Overcoming β-Lactam resistance in Pseudomonas aeruginosa using non-canonical tobramycin-based antibiotic adjuvants” (2020).

Key:
Assay type in all cases: functional
Pseudomonas aeruginosa [1] = experiment: Potentiation of ceftazidime-induced antibacterial activity against carbapenem-resistant Pseudomonas aeruginosa 100036 clinical isolate assessed as ceftazidime MIC at 8.7 uM by checkerboard assay (reference value: 8 ug/ml)
Pseudomonas aeruginosa [2] = experiment: Potentiation of ceftazidime-induced antibacterial activity against carbapenem-resistant Pseudomonas aeruginosa 109084 clinical isolate assessed as ceftazidime MIC at 8.7 uM by checkerboard assay (reference value: 64 ug/ml)
Pseudomonas aeruginosa [3] = experiment: Potentiation of ceftazidime-induced antibacterial activity against carbapenem-resistant Pseudomonas aeruginosa 259-96918 clinical isolate expressing metallo-beta-lactamase assessed as ceftazidime MIC at 8.7 uM by checkerboard assay (reference value: 512 ug/ml)
Pseudomonas aeruginosa [4] = experiment: Potentiation of aztreonam-induced antibacterial activity against carbapenem-resistant Pseudomonas aeruginosa 260-97103 clinical isolate assessed as aztreonam MIC at 8.7 uM by checkerboard assay (reference value: 64 ug/ml)
Pseudomonas aeruginosa [5] = experiment: Potentiation of aztreonam-induced antibacterial activity against carbapenem-resistant Pseudomonas aeruginosa 259-96918 clinical isolate expressing metallo-beta-lactamase assessed as aztreonam MIC at 8.7 uM by checkerboard assay (reference value: 32 ug/ml)
Pseudomonas aeruginosa [6] = experiment: Potentiation of ceftazidime-induced antibacterial activity against carbapenem-resistant Pseudomonas aeruginosa 260-97103 clinical isolate assessed as ceftazidime MIC at 8.7 uM by checkerboard assay (reference value: 32 ug/ml)
Pseudomonas aeruginosa [7] = experiment: Potentiation of ceftazidime-induced antibacterial activity against carbapenem and colistin-resistant Pseudomonas aeruginosa 91433 clinical isolate assessed as ceftazidime MIC at 8.7 uM by checkerboard assay (reference value: 4 ug/ml)
Pseudomonas aeruginosa [8] = experiment: Potentiation of ceftazidime-induced antibacterial activity against carbapenem and colistin-resistant Pseudomonas aeruginosa 114228 clinical isolate assessed as ceftazidime MIC at 8.7 uM by checkerboard assay (reference value: 8 ug/ml)
Pseudomonas aeruginosa [9] = experiment: Potentiation of aztreonam-induced antibacterial activity against carbapenem-resistant Pseudomonas aeruginosa 108590 clinical isolate assessed as aztreonam MIC at 8.7 uM by checkerboard assay (reference value: 32 ug/ml)
Pseudomonas aeruginosa [10] = experiment: Potentiation of aztreonam-induced antibacterial activity against carbapenem and colistin-resistant Pseudomonas aeruginosa 101243 clinical isolate assessed as aztreonam MIC at 8.7 uM by checkerboard assay (reference value: 32 ug/ml)
Pseudomonas aeruginosa [11] = experiment: Potentiation of aztreonam-induced antibacterial activity against carbapenem-resistant Pseudomonas aeruginosa 264-104354 clinical isolate assessed as aztreonam MIC at 8.7 uM by checkerboard assay (reference value: 32 ug/ml)
Pseudomonas aeruginosa [12] = experiment: Potentiation of ceftazidime-induced antibacterial activity against carbapenem-resistant Pseudomonas aeruginosa 264-104354 clinical isolate assessed as ceftazidime MIC at 8.7 uM by checkerboard assay (reference value: 128 ug/ml)

With `NC[C@H]1O[C@H](O[C@H]2[C@H](OCCCCCCCCN3CCCNCCNCCCNCC3)[C@@H](O[C@H]3O[C@H](CO)[C@@H](O)[C@H](N)[C@H]3O)[C@H](N)C[C@@H]2N)[C@H](N)C[C@@H]1O.O=C(O)C(F)(F)F.O=C(O)C(F)(F)F.O=C(O)C(F)(F)F.O=C(O)C(F)(F)F.O=C(O)C(F)(F)F.O=C(O)C(F)(F)F.O=C(O)C(F)(F)F.O=C(O)C(F)(F)F.O=C(O)C(F)(F)F` the MIC (Pseudomonas aeruginosa [1]) was 2 µg/mL, the MIC (Pseudomonas aeruginosa [2]) was 16 µg/mL and the MIC (Pseudomonas aeruginosa [3]) was 64 µg/mL. The MIC (Pseudomonas aeruginosa [4]) was 8 µg/mL, the MIC (Pseudomonas aeruginosa [5]) was 4 µg/mL and the MIC (Pseudomonas aeruginosa [6]) was 16 µg/mL. The MIC (Pseudomonas aeruginosa [7]) was 2 µg/mL, the MIC (Pseudomonas aeruginosa [8]) was 1 µg/mL and the MIC (Pseudomonas aeruginosa [9]) was 8 µg/mL. The MIC (Pseudomonas aeruginosa [10]) was 8 µg/mL, the MIC (Pseudomonas aeruginosa [11]) was 8 µg/mL and the MIC (Pseudomonas aeruginosa [12]) was 32 µg/mL.
